Assay results published in PubChem BioAssay (NCI).
Several values for one entry are separate records, joined by “and”; a condition that tells them apart may be missing. Identical values can stand only once.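 Tested at 5 concentrations; 48 h exposure; 96-well plates; endpoints linearly interpolated, else capped at highest concentration. Here, GI50 denotes the concentration required for 50% inhibition of growth. TGI marks complete inhibition of growth.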

How the values were obtained:
Assay in all cases: DTP human tumour cell line panel, 48 h
HCT-116 colon = test system: HCT-116 colon
EKVX NSCLC = test system: EKVX NSCLC
UO-31 renal = test system: UO-31 renal
SK-MEL-2 melanoma = test system: SK-MEL-2 melanoma
SK-MEL-5 melanoma = test system: SK-MEL-5 melanoma
HCT-15 colon = test system: HCT-15 colon
PC-3 prostate = test system: PC-3 prostate
SNB-75 CNS = test system: SNB-75 CNS
UACC-257 melanoma = test system: UACC-257 melanoma
SR leukemia = test system: SR leukemia

SMILES	GI50 (HCT-116 colon)	TGI (HCT-116 colon)	GI50 (EKVX NSCLC)	TGI (EKVX NSCLC)	GI50 (UO-31 renal)	TGI (UO-31 renal)	GI50 (SK-MEL-2 melanoma)	TGI (SK-MEL-2 melanoma)	GI50 (SK-MEL-5 melanoma)	TGI (SK-MEL-5 melanoma)	GI50 (HCT-15 colon)	TGI (HCT-15 colon)	GI50 (PC-3 prostate)	TGI (PC-3 prostate)	GI50 (SNB-75 CNS)	TGI (SNB-75 CNS)	GI50 (UACC-257 melanoma)	TGI (UACC-257 melanoma)	GI50 (SR leukemia)	TGI (SR leukemia)
N#CC1CCc2c(c(-c3cn[nH]c3C(F)(F)F)nc3c(F)cc4[nH]ncc4c23)C1 (stereo not given)	3.15 µM	19.6 µM	5.93 µM	28.2 µM	9.64 µM	36.6 µM	2.4 µM	6.78 µM	2.83 µM	9.79 µM	53.1 µM	> 100 µM	9.19 µM	> 100 µM	3.38 µM	8.96 µM	12.9 µM	74.5 µM	2.92 µM	59.1 µM
O[C@H](CN1CC1)[C@@H](O)CN1CC1	5.83 µM	35.6 µM	15 µM	49.6 µM	2.65 µM	13.1 µM	41 µM	> 100 µM	13.1 µM	29.2 µM	10.6 µM	88.9 µM	15.1 µM	> 100 µM	2.94 µM	21.4 µM	11.6 µM	89.9 µM	0.452 µM	> 100 µM
CN1N=Nc2c(C(F)(F)F)nn(-c3ccccc3)c2N(C)C1=O	> 100 µM	> 100 µM	> 100 µM	> 100 µM	> 100 µM	> 100 µM	> 100 µM	> 100 µM	> 100 µM	> 100 µM	> 100 µM	> 100 µM	> 100 µM	> 100 µM	> 100 µM	> 100 µM	> 100 µM	> 100 µM	> 100 µM	> 100 µM
CC(C)(F)C[C@H](N[C@@H](c1ccc(-c2ccc(S(C)(=O)=O)cc2)cc1)C(F)(F)F)C(=O)NC1(C#N)CC1	22 µM and > 100 µM	55 µM and > 100 µM	30.7 µM	55 µM	49.3 µM and 23.2 µM	55 µM and > 100 µM	13.4 µM and 38.6 µM	55 µM and > 100 µM	> 55 µM and 73.1 µM	> 100 µM	> 100 µM	> 100 µM	36.9 µM and 27.9 µM	55 µM and > 100 µM	7.51 µM and 16.4 µM	29.8 µM and 39.4 µM	> 55 µM and 61.8 µM	> 100 µM	93.1 µM	> 100 µM
N#C/C(=C\c1cccnc1)c1nc2ccccc2o1	> 100 µM	> 100 µM	> 100 µM	> 100 µM	43.1 µM	> 100 µM	> 100 µM	> 100 µM	> 100 µM	> 100 µM	> 100 µM	> 100 µM	> 100 µM	> 100 µM	> 100 µM	> 100 µM	> 100 µM	> 100 µM	> 100 µM	> 100 µM
